Drawing on patent publication US5332726A, “Antithrombotic peptides and pseudopeptides” (Rhone-Poulenc Rorer Pharmaceuticals Inc., priority 1992, dated 1994), this text covers IC50 and inhibition for 31 compounds.

Non-standard residues stand in square brackets, D forms with d. Residues, ends and D or L forms follow the SMILES beside them. Ahx = NCCCCCC(=O)O; Ava = NCCCCC(=O)O; NEtG = CCNCC(=O)O Where only a bound is given, the exact number is not on record here.

As usually defined, the IC50 is the concentration at which inhibition is half-maximal. The term inhibition denotes the percentage by which the read-out fell short of the control.

Assay [1] deals with thrombin-stimulated platelets (Homo sapiens, UniProt P05106+P08514). The assay can be described thus: Fibrinogen-Binding Assay (125I-fibrinogen binding to platelets). Particulars: 125I-fibrinogen 0.176 μmol/liter, thrombin-stimulated platelets; read-out: Inhibition of 125I-Fibrinogen Binding to Platelets IC50.
Chain of thrombin-stimulated platelets (P08514 32-1039): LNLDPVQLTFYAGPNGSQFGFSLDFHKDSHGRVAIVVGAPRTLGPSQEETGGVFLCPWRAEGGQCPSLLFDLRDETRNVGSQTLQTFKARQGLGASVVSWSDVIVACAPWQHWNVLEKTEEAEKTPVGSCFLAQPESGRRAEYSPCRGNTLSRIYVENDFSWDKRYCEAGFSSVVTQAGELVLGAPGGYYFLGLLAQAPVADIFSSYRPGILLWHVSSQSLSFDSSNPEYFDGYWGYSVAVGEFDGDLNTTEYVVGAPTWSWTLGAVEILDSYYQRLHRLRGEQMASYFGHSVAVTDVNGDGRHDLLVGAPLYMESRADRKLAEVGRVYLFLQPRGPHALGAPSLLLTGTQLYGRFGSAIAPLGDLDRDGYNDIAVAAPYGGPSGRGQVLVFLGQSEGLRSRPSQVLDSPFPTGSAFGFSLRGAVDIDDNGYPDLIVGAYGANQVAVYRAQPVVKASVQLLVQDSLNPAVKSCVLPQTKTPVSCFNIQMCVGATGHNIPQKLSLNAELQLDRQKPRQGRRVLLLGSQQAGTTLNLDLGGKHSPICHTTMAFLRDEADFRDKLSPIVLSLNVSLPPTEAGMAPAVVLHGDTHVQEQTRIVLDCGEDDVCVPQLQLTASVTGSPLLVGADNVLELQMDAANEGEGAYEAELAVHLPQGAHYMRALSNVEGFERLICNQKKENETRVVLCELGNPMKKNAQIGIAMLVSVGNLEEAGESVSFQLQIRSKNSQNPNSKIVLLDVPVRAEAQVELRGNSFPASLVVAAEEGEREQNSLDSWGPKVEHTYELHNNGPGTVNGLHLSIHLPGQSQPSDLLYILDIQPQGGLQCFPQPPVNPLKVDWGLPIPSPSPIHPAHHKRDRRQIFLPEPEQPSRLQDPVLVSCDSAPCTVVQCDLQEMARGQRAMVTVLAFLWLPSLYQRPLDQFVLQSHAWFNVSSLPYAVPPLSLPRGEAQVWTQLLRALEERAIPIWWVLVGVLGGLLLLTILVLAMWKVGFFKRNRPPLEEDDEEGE
Chain of thrombin-stimulated platelets (P05106 27-788): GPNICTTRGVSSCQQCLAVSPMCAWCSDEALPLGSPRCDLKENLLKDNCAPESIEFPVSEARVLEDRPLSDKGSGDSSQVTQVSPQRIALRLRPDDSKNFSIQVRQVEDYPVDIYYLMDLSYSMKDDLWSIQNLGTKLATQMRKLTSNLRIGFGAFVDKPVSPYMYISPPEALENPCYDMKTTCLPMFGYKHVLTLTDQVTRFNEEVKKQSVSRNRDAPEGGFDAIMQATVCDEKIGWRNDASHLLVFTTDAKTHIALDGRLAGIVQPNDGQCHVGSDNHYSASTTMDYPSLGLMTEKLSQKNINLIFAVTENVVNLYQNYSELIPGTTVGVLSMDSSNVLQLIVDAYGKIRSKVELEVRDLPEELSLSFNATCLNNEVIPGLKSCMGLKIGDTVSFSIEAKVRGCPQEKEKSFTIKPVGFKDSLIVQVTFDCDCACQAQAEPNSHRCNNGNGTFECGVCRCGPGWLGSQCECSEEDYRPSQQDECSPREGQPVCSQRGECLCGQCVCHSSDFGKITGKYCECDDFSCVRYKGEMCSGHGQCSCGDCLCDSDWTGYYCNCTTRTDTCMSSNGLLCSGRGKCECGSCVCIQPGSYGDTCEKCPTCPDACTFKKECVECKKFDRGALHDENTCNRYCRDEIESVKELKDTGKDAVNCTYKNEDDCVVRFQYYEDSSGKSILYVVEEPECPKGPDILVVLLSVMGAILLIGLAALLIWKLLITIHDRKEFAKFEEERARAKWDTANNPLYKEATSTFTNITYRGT
The target of assay [2] is fixed activated platelets (Homo sapiens, UniProt P05106+P08514). Briefly: Platelet Aggregation Assay (fibrinogen-mediated aggregation of fixed-activated platelets). The assay is classed as cell-based. The conditions noted are these: for IC50: fixed activated platelets, human fibrinogen 250 μg/ml, read-out: Inhibition of Fibrinogen Mediated Platelet Aggregation IC50; for inhibition at 25 µM: read-out: Inhibition of Fibrinogen Mediated Platelet Aggregation % inhibition at 25 μM; for inhibition at 100 µM: read-out: Inhibition of Fibrinogen Mediated Platelet Aggregation % inhibition at 100 μM. The procedure, abridged:
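Activated platelets fixed with 0.50% paraformaldehyde for 30 min at room temperature. They were then pre-incubated 1 min with test compound before aggregation was triggered by human fibrinogen at 250 μg/ml final. Aggregation recorded on an aggregometer.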

Chain of fixed activated platelets (P08514 32-1039): as the sequence (P08514 32-1039) above
Chain of fixed activated platelets (P05106 27-788): as the sequence (P05106 27-788) above

As for `CCN(CC(=O)N[C@@H](CC(=O)O)C(=O)N[C@H](C(=O)O)C(C)C)C(=O)CCCCCCn1ccnc1` [7-(Imidazol-1-yl)heptanoyl-N-(ethyl)glycyl-L-aspartyl-L-valine], the figures for the concentration for half-maximal inhibition (IC50) in assay [1] and in assay [2] were 1300 nM and 10800 nM, respectively. The inhibition at 25 µM in assay [2] was determined as 82%.

Turning to `CC(C)CNC(=O)[C@H](CC(=O)O)NC(=O)CCCCCCCNC(=N)N` [8-Guanidinooctanoyl-L-aspartic acid-α-isobutylamide], the IC50 in assay [1] turned out to be 14500 nM. Moreover, in assay [2], the IC50 turned out to be 7800 nM and the inhibition at 25 µM was 81%.

As for `CC(C)[C@H](NC(=O)[C@H](CC(=O)O)NC(=O)CCCCCCCn1ccnc1)C(=O)O` [8-(Imidazol-1-yl)-octanoyl-L-aspartyl-L-valine], the IC50 in assay [1] stood at 860 nM. Also, in assay [2], the IC50 was 11600 nM and the inhibition at 25 µM came out at 78%.

Consider `CC(C)[C@H](NC(=O)[C@H](CC(=O)O)NC(=O)CN(C)C(=O)CCCCCNC(=N)N)C(=O)O` [6-Guanidinohexanoyl-L-sarcosyl-L-aspartyl-L-valine], for which the figures for the 50% inhibitory concentration (IC50) in assay [1] and in assay [2] were 320 nM and 630 nM, respectively. Moreover, the inhibition at 25 µM in assay [2] came out at 97%.

In the case of `CC(C)[C@H](NC(=O)[C@H](CC(=O)O)NC(=O)CNC(=O)CCCCCn1ccnc1)C(=O)O` [6-(Imidazol-1-yl)-hexanoyl-glycyl-L-aspartyl L-valine], the IC50 in assay [1] turned out to be 2800 nM. In addition, in assay [2], the IC50 is 17000 nM and the inhibition at 25 µM came out at 67%.

Turning to `CC(C)C[C@H](NC(=O)[C@H](CC(=O)O)NC(=O)CN(C)C(=O)CCCCCNC(=N)N)C(=O)O` [6-Guanidinohexanoyl-L-sarcosyl-L-aspartyl-L-leucine], the concentration for half-maximal inhibition (IC50) turned out to be 90 nM in assay [1] and 330 nM in assay [2]. For the same compound, the inhibition at 25 µM in assay [2] came out at 88%.

Take `CC(C)C[C@H](NC(=O)[C@H](CC(=O)O)NC(=O)CCCCCCCCNC(=N)N)C(=O)O` [9-guanidinononanoyl-L-aspartyl-L-leucine]: in assay [1], the IC50 was 400 nM. In addition, in assay [2], the IC50 is 590 nM and the inhibition at 25 µM came out at 95%.

Regarding `CCN(CC(=O)N[C@@H](CC(=O)O)C(=O)N[C@H](C(=O)O)C(C)C)C(=O)CCCCCn1ccnc1C` [6-(2-Methylimidazol-1-yl)hexanoyl-N-(ethyl)-glycyl-L-aspartyl-L-valine], the IC50 in assay [1] is 350 nM. In assay [2], the IC50 stood at 1900 nM and the inhibition at 25 µM turned out to be 93%.

As for `CN(CC(=O)N[C@@H](CC(=O)O)C(=O)N[C@@H](CCCNC(=N)N)C(=O)O)C(=O)CCCCCNC(=N)N` [6-Guanidinohexanoyl-sarcosyl-L-aspartyl-L-arginine], the IC50 in assay [1] is 520 nM. Moreover, in assay [2], the concentration for half-maximal inhibition (IC50) amounted to 2100 nM and the inhibition at 25 µM came out at 97%.

Take `CC[C@H](C)[C@H](NC(=O)CNC(=O)[C@H](CC(=O)O)NC(=O)CCCCCCCCNC(=N)N)C(=O)O` [9-Guanidinononanoyl-L-aspartyl-glycyl-L-isoleucine]: the IC50 in assay [1] stood at 40000 nM. Moreover, in assay [2], the IC50 turned out to be 25000 nM and the inhibition at 25 µM was found to be 54%.

Consider `CC(C)[C@H](NC(=O)[C@H](CC(=O)O)NC(=O)CCCCCCCCn1ccnc1)C(=O)O` [9-(Imidazol-1-yl)-nonanoyl-L-aspartyl-L-valine], for which, in assay [1], the IC50 turned out to be 500 nM. In assay [2], the 50% inhibitory concentration (IC50) stood at 3400 nM and the inhibition at 25 µM is 96%.

In the case of `CCN(CC(=O)N[C@@H](CC(=O)O)C(=O)N[C@@H](CC(C)C)C(=O)O)C(=O)CCCCCNC(=N)N` [6-guanidinohexanoyl-N-ethyl-glycyl-L-aspartyl-L-leucine], the IC50 in assay [1] is 5400 nM. Further, in assay [2], the IC50 worked out at 560 nM and the inhibition at 25 µM amounted to 95.5%.

Take `CC[C@H](C)[C@H](NC(=O)CCNC(=O)[C@H](CC(=O)O)NC(=O)CCCCCCCCNC(=N)N)C(=O)O` [9-Guanidinononanoyl-L-aspartyl-β-alanyl-L-isoleucine]: in assay [1], the IC50 was determined as 54000 nM. In assay [2], the IC50 came to 999000 nM and the inhibition at 25 µM worked out at 9%.

Consider `CCCC(C)CN(CC(=O)N[C@@H](CC(=O)O)C(=O)N[C@H](C(=O)O)C(C)C)C(=O)CCCCCNC(=N)N` (stereo partly drawn) [6-Guanidinohexanoyl-N-(2-methylpentyl)glycine-L-aspartic acid-L-valine], for which the figures for the IC50 in assay [1] and in assay [2] were greater than 200000 nM and 10500 nM, respectively. In assay [2], the inhibition at 25 µM was determined as 86%.

Take `CCN(CC(=O)N[C@@H](CC(=O)O)C(=O)N[C@@H](CC(C)C)C(=O)O)C(=O)CCCCNC(=N)N` [5-guanidinopentanoyl-N-(ethyl)-glycyl-L-aspartyl-L-leucine]: the IC50 in assay [1] was 390 nM. Further, in assay [2], the IC50 came out at 540 nM and the inhibition at 25 µM is 90%.

As to `N=C(N)NCCCCCC=CC(=O)N[C@@H](CC(=O)O)C(=O)N[C@@H](CCCNC(=N)N)C(=O)O` [8-Guanidinooct-2-enoyl-L-aspartyl-L-arginine], the IC50 in assay [1] was determined as 580 nM. In assay [2], the IC50 worked out at 630 nM and the inhibition at 25 µM amounted to 90%.

For the compound `CC(C)[C@H](NC(=O)[C@H](CC(=O)O)NC(=O)C=CCCCCCCCNC(=N)N)C(=O)O` [10-Guanidinodec-2-enoyl-L-aspartyl-L-valine], the IC50 in assay [1] stood at 12000 nM. In addition, in assay [2], the IC50 was determined as 8800 nM and the inhibition at 25 µM worked out at 77%.

As for `CC(C)[C@H](NC(=O)[C@H](CC(=O)O)NC(=O)CNC(=O)[C@@H](N)CCCCN)C(=O)O` [L-Lysylglycyl-L-aspartyl-L-valine] (H-KGDV-OH), the IC50 in assay [1] was 60000 nM; in assay [2] it was greater than 25000 nM. Also, the inhibition at 25 µM in assay [2] worked out at 8%.

With `CCC(C)COC(=O)[C@H](CCCNC(=N)N)NC(=O)[C@H](CC(=O)O)NC(=O)CCCCCCCCNC(=N)N` (stereo partly drawn) [9-Guanidinononanoyl-L-aspartyl-L-arginine-2-methyl-butylester], the figures for the IC50 in assay [1] and in assay [2] were 120 nM and 730 nM, respectively. Moreover, the inhibition at 25 µM in assay [2] is 97%.

As to `CC[C@H](C)[C@H](NC(=O)[C@H](CC(=O)O)NC(=O)CN(CC)C(=O)CCCCCNC(=N)N)C(=O)O` [6-Guanidinohexanoyl-N-ethylglycyl-L-aspartyl-L-isoleucine], the IC50 in assay [1] was 50 nM. Further, in assay [2], the concentration for half-maximal inhibition (IC50) came out at 560 nM and the inhibition at 25 µM was 96%.

`CCN(CC(=O)N[C@@H](CC(=O)O)C(=O)N[C@H](C(=O)O)C(C)C)C(=O)CCCCCN` [6-Aminohexanoyl-N-ethylglycyl-L-aspartyl-L-valine] (H-[Ahx][NEtG]DV-OH): the IC50 in assay [1] was 4000 nM. Also, in assay [2], the half-inhibitory concentration (IC50) was 4100 nM and the inhibition at 25 µM worked out at 92%.

Take `N=C(N)NCCCCCCCCC(=O)N[C@@H](CC(=O)O)C(=O)NCCCCNC(=N)N` [9-Guanidinononanoyl-L-aspartyl-(des-carboxy)-L-arginine]: in assay [1], the IC50 amounted to 520 nM. Moreover, in assay [2], the IC50 was 4400 nM and the inhibition at 25 µM turned out to be 84%.

With `N=C(N)NCCCCC(=O)NCC(=O)N[C@@H](CC(=O)O)C(=O)NCCc1ccccc1` [N-(5-guanidinopentanoyl)glycyl-L-aspartylphenethylamide], the IC50 in assay [1] came out at 20000 nM. Further, in assay [2], the IC50 turned out to be 2100 nM and the inhibition at 100 µM is 86%.

Take `CC(C)[C@H](NC(=O)[C@H](CC(=O)O)NC(=O)CNC(=O)CCCCN)C(=O)O` [N-(5-Aminopentanoyl) glycyl-L-aspartyl-L-valine] (H-[Ava]GDV-OH): in assay [1], the IC50 worked out at 68500 nM. Besides, in assay [2], the IC50 is greater than 64000 nM and the inhibition at 100 µM worked out at 67%.

For `CC(C)[C@H](NC(=O)[C@H](CC(=O)O)NC(=O)CCCCCCCNC(=N)N)C(=O)O` [8-Guanidinooctanoyl-L-aspartyl-L-valine], in assay [1], the IC50 came to 2800 nM. In addition, in assay [2], the IC50 stood at 2700 nM and the inhibition at 25 µM stood at 89%.

Consider `CC(C)CN(CC(=O)N[C@@H](CC(=O)O)C(=O)N[C@H](C(=O)O)C(C)C)C(=O)CCCCCNC(=N)N` [6-Guanidinohexanoyl-N-isobutylglycyl-L-aspartyl-L-valine], for which the IC50 in assay [1] amounted to 100 nM. Also, in assay [2], the IC50 turned out to be 1500 nM and the inhibition at 25 µM was found to be 86%.

In the case of `CC[C@H](C)[C@H](NC(=O)[C@H](CC(=O)O)NC(=O)CCCCCCCCNC(=N)N)C(=O)N[C@@H](CCCNC(=N)N)C(=O)O` [9-Guanidinononanoyl-L-aspartyl-isoleucyl-arginine], the IC50 in assay [1] stood at 370 nM; in assay [2], 670 nM. For the same compound, the inhibition at 25 µM in assay [2] came out at 94%.

As for `CC(C)[C@H](NC(=O)[C@H](CC(=O)O)NC(=O)CN(C)C(=O)CCCNC(=N)N)C(=O)O` [4-Guanidinobutanoyl-L-sarcosyl-L-aspartyl-L-valine], the IC50 in assay [1] came out at 3300 nM. In assay [2], the IC50 turned out to be 10800 nM and the inhibition at 25 µM turned out to be 84%.

As to `CCN(CC(=O)N[C@@H](CC(=O)O)C(=O)N[C@H](C(=O)O)C(C)C)C(=O)CCCCCn1ccnc1` [6-(Imidazol-1-yl)-hexanoyl-N-ethylglycyl-L-aspartyl-L-valine], the IC50 in assay [1] stood at 900 nM. In addition, in assay [2], the IC50 came to 1000 nM and the inhibition at 25 µM worked out at 95%.

Regarding `CC(C)COC(=O)[C@H](CCCNC(=N)N)NC(=O)[C@H](CC(=O)O)NC(=O)CCCCCCCCNC(=N)N` [9-guanidinononanoyl-L-aspartyl-L-arginine isobutyl ester], the IC50 in assay [1] was determined as 625 nM. For the same compound, in assay [2], the IC50 worked out at 540 nM and the inhibition at 25 µM stood at 97%.

Consider `CC(C)[C@H](NC(=O)[C@H](CC(=O)O)NC(=O)CN(C)C(=O)CCCCCCNC(=N)N)C(=O)O` [7-Guanidinoheptanoyl-L-sarcosyl-L-aspartyl-L-valine], for which the IC50 in assay [1] was found to be 5100 nM. Moreover, the inhibition at 25 µM in assay [2] came to 14%.
